# pEC50: −log10 of the molar value.
# Target: T1, hGPR40 (Homo sapiens, UniProt O14842)
# T1 construct: 3x FLAG; expressed in transfected cells
# Assay: FDSS-Based Intracellular Calcium Assay
# Type: cell-based
# Conditions: cells expressing GPR40, intracellular Ca2+ response
# In short: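 Flag-tagged GPR40-expressing cells plated overnight in serum-free, phenol red-free DMEM. Compounds added from DMSO stocks, diluted in assay buffer and added as 3x solution. Intracellular Ca^2+ flux read by fluorescence on an FDSS reader.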
# T1 sequence (O14842 whole entry): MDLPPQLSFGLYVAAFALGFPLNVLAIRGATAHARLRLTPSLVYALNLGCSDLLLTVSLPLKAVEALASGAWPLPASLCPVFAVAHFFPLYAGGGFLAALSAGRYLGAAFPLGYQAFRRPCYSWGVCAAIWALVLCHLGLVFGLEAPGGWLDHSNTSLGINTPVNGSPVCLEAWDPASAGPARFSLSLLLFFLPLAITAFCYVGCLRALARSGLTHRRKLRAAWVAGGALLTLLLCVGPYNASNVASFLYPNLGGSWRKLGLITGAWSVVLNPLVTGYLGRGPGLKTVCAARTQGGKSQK
row,pEC50,SMILES
1,5.42,"COc1ccc(F)c(-c2ccc(Cc3ccc(N4N=C(C(F)(F)F)C(C(C)C)C4CC(=O)O)cc3)c(C)c2)c1 (single isomer, unassigned) [Example 45, Isomer 1, 2-(1-(4-((2′-fluoro-5′-methoxy-3-methylbiphenyl-4-yl)methyl)phenyl)-4-isopropyl-3-(trifluoromethyl)-4,5-dihydro-1H-pyrazol-5-yl)acetic acid]"
2,7.15,"COc1ccc(F)c(-c2ccc(Cc3ccc(N4N=C(C(F)(F)F)C(C(C)C)C4CC(=O)O)cc3)c(C)c2)c1 (single isomer, unassigned) [Example 45, Isomer 2, 2-(1-(4-((2′-fluoro-5′-methoxy-3-methylbiphenyl-4-yl)methyl)phenyl)-4-isopropyl-3-(trifluoromethyl)-4,5-dihydro-1H-pyrazol-5-yl)acetic acid]"
3,7.30,"COc1ccc(F)c(-c2ccc(Cc3ccc(N4N=C(C(F)(F)F)C(CC5CC5)C4CC(=O)O)cc3)c(C)c2)c1 (single isomer, unassigned) [Example 46, Isomer 1, 2-(4-(cyclopropylmethyl)-1-(4-((2′-fluoro-5′-methoxy-3-methylbiphenyl-4-yl)methyl)phenyl)-3-(trifluoromethyl)-4,5-dihydro-1H-pyrazol-5-yl)acetic acid]"
4,5.72,"COc1ccc(F)c(-c2ccc(Cc3ccc(N4N=C(C(F)(F)F)C(CC5CC5)C4CC(=O)O)cc3)c(C)c2)c1 (single isomer, unassigned) [Example 46, Isomer 2, 2-(4-(cyclopropylmethyl)-1-(4-((2′-fluoro-5′-methoxy-3-methylbiphenyl-4-yl)methyl)phenyl)-3-(trifluoromethyl)-4,5-dihydro-1H-pyrazol-5-yl)acetic acid]"
5,6.77,"COCC1C(C(F)(F)F)=NN(c2ccc(Cc3ccc(-c4cc(OC)ccc4F)cc3C)cc2)C1CC(=O)O (single isomer, unassigned) [Example 48, Isomer 1, 2-(1-(4-((2′-fluoro-5′-methoxy-3-methylbiphenyl-4-yl)methyl)phenyl)-4-(methoxymethyl)-3-(trifluoromethyl)-4,5-dihydro-1H-pyrazol-5-yl)acetic acid]"
6,6.04,"COCC1C(C(F)(F)F)=NN(c2ccc(Cc3ccc(-c4cc(OC)ccc4F)cc3C)cc2)C1CC(=O)O (single isomer, unassigned) [Example 48, Isomer 2, 2-(1-(4-((2′-fluoro-5′-methoxy-3-methylbiphenyl-4-yl)methyl)phenyl)-4-(methoxymethyl)-3-(trifluoromethyl)-4,5-dihydro-1H-pyrazol-5-yl)acetic acid]"
7,6.77,"COc1ccc(F)c(-c2ccc(Cc3ccc(N4N=C(C(F)(F)F)C(CO)C4CC(=O)O)cc3)c(C)c2)c1 (single isomer, unassigned) [Example 53, Isomer 1, 2-(1-(4-((2′-fluoro-5′-methoxy-3-methyl-[1,1′-biphenyl]-4-yl)methyl)phenyl)-4-(hydroxymethyl)-3-(trifluoromethyl)-4,5-dihydro-1H-pyrazol-5-yl)acetic acid, trans-diastereomer]"
8,5.96,"COc1ccc(F)c(-c2ccc(Cc3ccc(N4N=C(C(F)(F)F)C(CO)C4CC(=O)O)cc3)c(C)c2)c1 (single isomer, unassigned) [Example 53, Isomer 2, 2-(1-(4-((2′-fluoro-5′-methoxy-3-methyl-[1,1′-biphenyl]-4-yl)methyl)phenyl)-4-(hydroxymethyl)-3-(trifluoromethyl)-4,5-dihydro-1H-pyrazol-5-yl)acetic acid, trans-diastereomer]"
9,5.96,"COc1ccc(F)c(-c2ccc(Cc3ccc(N4N=C(C(F)(F)F)C(CC#N)C4CC(=O)O)cc3)c(C)c2)c1 (single isomer, unassigned) [Example 54, Isomer 2, 2-(4-(cyanomethyl)-1-(4-((2′-fluoro-5′-methoxy-3-methyl-[1,1′-biphenyl]-4-yl)methyl)phenyl)-3-(trifluoromethyl)-4,5-dihydro-1H-pyrazol-5-yl)acetic acid, trans-diastereomer]"
10,6.42,"COc1ccc(F)c(-c2ccc(Cc3ccc(N4N=C(C(F)(F)F)C(CC#N)C4CC(=O)O)cc3)c(C)c2)c1 (single isomer, unassigned) [Example 54, isomer 1, 2-(4-(cyanomethyl)-1-(4-((2′-fluoro-5′-methoxy-3-methyl-[1,1′-biphenyl]-4-yl)methyl)phenyl)-3-(trifluoromethyl)-4,5-dihydro-1H-pyrazol-5-yl)acetic acid, trans-diastereomer]"

# The next lines start with the compound.
row,SMILES,pEC50
1,"COc1ccc(F)c(-c2ccc(Cc3ccc(N4N=C(C(F)(F)F)C(c5ccccc5)C4CC(=O)O)cc3)c(C)c2)c1 (single isomer, unassigned) [Example 47, Isomer 1, 2-(1-(4-((2′-fluoro-5′-methoxy-3-methylbiphenyl-4-yl)methyl)phenyl)-4-phenyl-3-(trifluoromethyl)-4,5-dihydro-1H-pyrazol-5-yl)acetic acid]",6.05
2,"COc1ccc(F)c(-c2ccc(Cc3ccc(N4N=C(C(F)(F)F)C(c5ccccc5)C4CC(=O)O)cc3)c(C)c2)c1 (single isomer, unassigned) [Example 47, Isomer 2, 2-(1-(4-((2′-fluoro-5′-methoxy-3-methylbiphenyl-4-yl)methyl)phenyl)-4-phenyl-3-(trifluoromethyl)-4,5-dihydro-1H-pyrazol-5-yl)acetic acid]",5.23
3,"COc1ccc(OC)c(-c2ccc(Cc3ccc(N4N=C(C#N)CC4CC(=O)O)cc3)c(C)c2)c1 (single isomer, unassigned) [Example 49, Isomer 1, 2-(3-cyano-1-(4-((2′,5′-dimethoxy-3-methylbiphenyl-4-yl)methyl)phenyl)-4,5-dihydro-1H-pyrazol-5-yl)acetic acid]",6.65
4,"COc1ccc(OC)c(-c2ccc(Cc3ccc(N4N=C(C#N)CC4CC(=O)O)cc3)c(C)c2)c1 (single isomer, unassigned) [Example 49, Isomer 2, 2-(3-cyano-1-(4-((2′,5′-dimethoxy-3-methylbiphenyl-4-yl)methyl)phenyl)-4,5-dihydro-1H-pyrazol-5-yl)acetic acid]",5.51
5,"COc1ccc(F)c(-c2ccc(Cc3ccc(N4N=C(C(F)(F)F)C(C)(C)C4CC(=O)O)cc3)c(C)c2)c1 (single isomer, unassigned) [Example 50, Isomer 1, 2-(1-(4-((2′-fluoro-5′-methoxy-3-methylbiphenyl-4-yl)methyl)phenyl)-4,4-dimethyl-3-(trifluoromethyl)-4,5-dihydro-1H-pyrazol-5-yl)acetic acid]",6.66
6,"COc1ccc(F)c(-c2ccc(Cc3ccc(N4N=C(C(F)(F)F)C(C)(C)C4CC(=O)O)cc3)c(C)c2)c1 (single isomer, unassigned) [Example 50, Isomer 2, 2-(1-(4-((2′-fluoro-5′-methoxy-3-methylbiphenyl-4-yl)methyl)phenyl)-4,4-dimethyl-3-(trifluoromethyl)-4,5-dihydro-1H-pyrazol-5-yl)acetic acid]",5.87
7,"COc1ccc(F)c(-c2ccc(Cc3ccc(N4N=C(C(F)(F)F)CC4(C)CC(=O)O)cc3)c(C)c2)c1 (single isomer, unassigned) [Example 51, Isomer 1, 2-(1-(4-((2′-fluoro-5′-methoxy-3-methylbiphenyl-4-yl)methyl)phenyl)-5-methyl-3-(trifluoromethyl)-4,5-dihydro-1H-pyrazol-5-yl)acetic acid]",5.81
8,"COc1ccc(F)c(-c2ccc(Cc3ccc(N4N=C(C(F)(F)F)CC4(C)CC(=O)O)cc3)c(C)c2)c1 (single isomer, unassigned) [Example 51, Isomer 2, 2-(1-(4-((2′-fluoro-5′-methoxy-3-methylbiphenyl-4-yl)methyl)phenyl)-5-methyl-3-(trifluoromethyl)-4,5-dihydro-1H-pyrazol-5-yl)acetic acid]",5.83
9,"COc1ccc(F)c(-c2ccc(Cc3ccc(N4N=C(C#N)C(C)C4CC(=O)O)cc3)c(C)c2)c1 (single isomer, unassigned) [Example 52, Isomer 1, 2-(3-cyano-1-(4-((2′-fluoro-5′-methoxy-3-methylbiphenyl-4-yl)methyl)phenyl)-4-methyl-4,5-dihydro-1H-pyrazol-5-yl)acetic acid]",5.98
10,"COc1ccc(F)c(-c2ccc(Cc3ccc(N4N=C(C#N)C(C)C4CC(=O)O)cc3)c(C)c2)c1 (single isomer, unassigned) [Example 52, Isomer 2, 2-(3-cyano-1-(4-((2′-fluoro-5′-methoxy-3-methylbiphenyl-4-yl)methyl)phenyl)-4-methyl-4,5-dihydro-1H-pyrazol-5-yl)acetic acid]",6.52
11,"COc1ccc(F)c(-c2ccc(Cc3ccc(N4N=C(c5ccn(C)n5)C(C)C4CC(=O)O)cc3)c(C)c2)c1 (single isomer, unassigned) [Example 55, Isomer 1, 2-((1-(4-((2′-fluoro-5′-methoxy-3-methyl-[1,1′-biphenyl]-4-yl)methyl)phenyl)-1′,4-dimethyl-4,5-dihydro-1H,1′H-[3,3′-bipyrazol]-5-yl)acetic acid, trans-diastereomer]",5.25
12,"COc1ccc(F)c(-c2ccc(Cc3ccc(N4N=C(c5ccn(C)n5)C(C)C4CC(=O)O)cc3)c(C)c2)c1 (single isomer, unassigned) [Example 55, Isomer 2, 2-((1-(4-((2′-fluoro-5′-methoxy-3-methyl-[1,1′-biphenyl]-4-yl)methyl)phenyl)-1′,4-dimethyl-4,5-dihydro-1H,1′H-[3,3′-bipyrazol]-5-yl)acetic acid, trans-diastereomer]",6.64
13,"COc1ccc(F)c(-c2ccc(Cc3ccc(N4N=C(c5ccccc5)C(C)C4CC(=O)O)cc3)c(C)c2)c1 (single isomer, unassigned) [Example 59, Isomer 1, 2-(1-(4-((2′-fluoro-5′-methoxy-3-methyl-[1,1′-biphenyl]-4-yl)methyl)phenyl)-4-methyl-3-phenyl-4,5-dihydro-1H-pyrazol-5-yl)acetic acid]",5.19

# From US9656963B2 (BRISTOL-MYERS SQUIBB COMPANY, priority 2012, dated 2017)
